How the values were obtained:
[1] = 2 mg/os daily at 18:00 h for 2 months; adult men; cited from earlier work
rabbit aorta = details: high concentrations 10-1000 μM; in vitro; cited from earlier work
[2] = Experiment 1: morning blood pressure after 3 weeks of controlled-release melatonin in elderly insomnia patients; assay type: in vivo, human; details: hypertensive elderly subjects; administration in the evening
Protocol: All patients, who had been insomniacs, were diagnosed according to DSM IV. They consisted of 86 men and 96 women, age 72±9 years. […] During the last week of the treatment period, BP was assessed at the morning and comparisons were made between placebo or melatonin treatments, and baseline.

COc1ccc2[nH]cc(CCNC(C)=O)c2c1 [melatonin]
mean serum melatonin levels [1]: marked elevation | Vasorelaxing action (rabbit aorta): observed | daytime systolic and diastolic blood pressure [2]: decreased

— patent US7332177B1, “Method and formulation for treating resistance to antihypertensives and related conditions” (Neurim Pharmaceuticals (1991) Ltd., priority 2000, dated 2008)
